In ChEMBL document CHEMBL5724806, “Unraveling interindividual differences and functional consequences of gut microbial metabolism of immunosuppressants” (2024):

Columns and labels:
Type in all cases: ADME
[1] = (§1) The drug is tested on the gut metagenome community of T-05 with ENA study accession number: PRJEB31790 for biotransformation under microaerobic condition. The drug concentrations were measured over 7 timepoints collected between 0 and 12 hours of incubation by liquid-chromatography-coupled mass spectrometry (LC–MS); set-up: dose 5 uM, timepoint 0, 0.75, 1.5, 3, 6, 9, 12 hours; details: 5 µM
[2] = The drug is tested on Lactobacillus paracasei strain: ATCC27092 for biotransformation under anaerobic condition. The drug concentrations were measured over 6 timepoints collected between 0 and 12 hours of incubation by liquid-chromatography-coupled mass spectrometry (LC–MS); set-up: dose 5 uM, timepoint 0, 1.5, 3, 6, 9, 12 hours; details: lacticaseibacillus paracasei, 5 µM
[3] = as §1, with “T-03” for “T-05”, “anaerobic” for “microaerobic”; set-up: dose 5 uM, timepoint 0, 0.75, 1.5, 3, 6, 9, 12 hours; details: 5 µM
[4] = The drug is tested on Alloscardovia omnicolens strain: DSM21503 for biotransformation under anaerobic condition. The drug concentrations were measured over 6 timepoints collected between 0 and 12 hours of incubation by liquid-chromatography-coupled mass spectrometry (LC–MS); set-up: dose 5 uM, timepoint 0, 1.5, 3, 6, 9, 12 hours; details: 5 µM
[5] = as §1, with “T-04” for “T-05”, “anaerobic” for “microaerobic”; set-up: dose 5 uM, timepoint 0, 0.75, 1.5, 3, 6, 9, 12 hours; details: 5 µM
[6] = The drug is tested on Lactobacillus reuteri strain: DSM20016 for biotransformation under anaerobic condition. The drug concentrations were measured over 6 timepoints collected between 0 and 12 hours of incubation by liquid-chromatography-coupled mass spectrometry (LC–MS); set-up: dose 5 uM, timepoint 0, 1.5, 3, 6, 9, 12 hours; details: limosilactobacillus reuteri, 5 µM
[7] = as §1, with “P-01” for “T-05”; set-up: dose 5 uM, timepoint 0, 0.75, 1.5, 3, 6, 9, 12 hours; details: 5 µM
[8] = The drug is tested on Actinomyces graevenitzii strain: DSM15540 for biotransformation under microaerobic condition. The drug concentrations were measured over 6 timepoints collected between 0 and 12 hours of incubation by liquid-chromatography-coupled mass spectrometry (LC–MS); set-up: dose 5 uM, timepoint 0, 1.5, 3, 6, 9, 12 hours; details: 5 µM
[9] = as §1, with “P-01” for “T-05”, “anaerobic” for “microaerobic”; set-up: dose 5 uM, timepoint 0, 0.75, 1.5, 3, 6, 9, 12 hours; details: 5 µM
[10] = The drug is tested on Lactobacillus paracasei strain: ATCC27092 for biotransformation under microaerobic condition. The drug concentrations were measured over 6 timepoints collected between 0 and 12 hours of incubation by liquid-chromatography-coupled mass spectrometry (LC–MS); set-up: dose 5 uM, timepoint 0, 1.5, 3, 6, 9, 12 hours; details: lacticaseibacillus paracasei, 5 µM
[11] = The drug is tested on Prevotella copri strain: DSM18205 for biotransformation under anaerobic condition. The drug concentrations were measured over 6 timepoints collected between 0 and 12 hours of incubation by liquid-chromatography-coupled mass spectrometry (LC–MS); set-up: dose 5 uM, timepoint 0, 1.5, 3, 6, 9, 12 hours; details: segatella copri, 5 µM
[12] = as §1, with “T-03” for “T-05”; set-up: dose 5 uM, timepoint 0, 0.75, 1.5, 3, 6, 9, 12 hours; details: 5 µM
[13] = The drug is tested on Enterococcus faecalis strain: ATCC29212 for biotransformation under anaerobic condition. The drug concentrations were measured over 6 timepoints collected between 0 and 12 hours of incubation by liquid-chromatography-coupled mass spectrometry (LC–MS); set-up: dose 5 uM, timepoint 0, 1.5, 3, 6, 9, 12 hours; details: 5 µM
[14] = The drug is tested on Bifidobacterium longum strain: DSM20088 for biotransformation under anaerobic condition. The drug concentrations were measured over 6 timepoints collected between 0 and 12 hours of incubation by liquid-chromatography-coupled mass spectrometry (LC–MS); set-up: dose 5 uM, timepoint 0, 1.5, 3, 6, 9, 12 hours; details: 5 µM
[15] = The drug is tested on Lactobacillus ruminis strain: ATCC25644 for biotransformation under microaerobic condition. The drug concentrations were measured over 6 timepoints collected between 0 and 12 hours of incubation by liquid-chromatography-coupled mass spectrometry (LC–MS); set-up: dose 5 uM, timepoint 0, 1.5, 3, 6, 9, 12 hours; details: ligilactobacillus ruminis, 5 µM
[16] = The drug is tested on Escherichia coli strain: DSM27469 for biotransformation under anaerobic condition. The drug concentrations were measured over 6 timepoints collected between 0 and 12 hours of incubation by liquid-chromatography-coupled mass spectrometry (LC–MS); set-up: dose 5 uM, timepoint 0, 1.5, 3, 6, 9, 12 hours; details: 5 µM
[17] = The drug is tested on Odoribacter splanchnicus strain: DSM20712 for biotransformation under anaerobic condition. The drug concentrations were measured over 6 timepoints collected between 0 and 12 hours of incubation by liquid-chromatography-coupled mass spectrometry (LC–MS); set-up: dose 5 uM, timepoint 0, 1.5, 3, 6, 9, 12 hours; details: 5 µM
[18] = The drug is tested on Bifidobacterium adolescentis strain: DSM20083 for biotransformation under anaerobic condition. The drug concentrations were measured over 6 timepoints collected between 0 and 12 hours of incubation by liquid-chromatography-coupled mass spectrometry (LC–MS); set-up: dose 5 uM, timepoint 0, 1.5, 3, 6, 9, 12 hours; details: 5 µM
[19] = as §1, with “T-04” for “T-05”; set-up: dose 5 uM, timepoint 0, 0.75, 1.5, 3, 6, 9, 12 hours; details: 5 µM
[20] = The drug is tested on Bacteroides stercoris strain: HM 1036 for biotransformation under anaerobic condition. The drug concentrations were measured over 6 timepoints collected between 0 and 12 hours of incubation by liquid-chromatography-coupled mass spectrometry (LC–MS); set-up: dose 5 uM, timepoint 0, 1.5, 3, 6, 9, 12 hours; details: 5 µM
[21] = The drug is tested on Streptococcus salivarius strain: DSM20560 for biotransformation under microaerobic condition. The drug concentrations were measured over 6 timepoints collected between 0 and 12 hours of incubation by liquid-chromatography-coupled mass spectrometry (LC–MS); set-up: dose 5 uM, timepoint 0, 1.5, 3, 6, 9, 12 hours; details: 5 µM
[22] = as §1, with “A-02” for “T-05”, “anaerobic” for “microaerobic”; set-up: dose 5 uM, timepoint 0, 0.75, 1.5, 3, 6, 9, 12 hours; details: 5 µM
[23] = The drug is tested on Streptococcus salivarius strain: DSM20560 for biotransformation under anaerobic condition. The drug concentrations were measured over 6 timepoints collected between 0 and 12 hours of incubation by liquid-chromatography-coupled mass spectrometry (LC–MS); set-up: dose 5 uM, timepoint 0, 1.5, 3, 6, 9, 12 hours; details: 5 µM
[24] = as §1, with “A-03” for “T-05”, “anaerobic” for “microaerobic”; set-up: dose 5 uM, timepoint 0, 0.75, 1.5, 3, 6, 9, 12 hours; details: 5 µM
[25] = as §1, with “A-07” for “T-05”; set-up: dose 5 uM, timepoint 0, 0.75, 1.5, 3, 6, 9, 12 hours; details: 5 µM
[26] = as §1, with “A-10” for “T-05”; set-up: dose 5 uM, timepoint 0, 0.75, 1.5, 3, 6, 9, 12 hours; details: 5 µM
[27] = as §1, with “P-03” for “T-05”; set-up: dose 5 uM, timepoint 0, 0.75, 1.5, 3, 6, 9, 12 hours; details: 5 µM
[28] = The drug is tested on Escherichia coli strain: DSM27469 for biotransformation under microaerobic condition. The drug concentrations were measured over 6 timepoints collected between 0 and 12 hours of incubation by liquid-chromatography-coupled mass spectrometry (LC–MS); set-up: dose 5 uM, timepoint 0, 1.5, 3, 6, 9, 12 hours; details: 5 µM
[29] = as §1, with “A-02” for “T-05”; set-up: dose 5 uM, timepoint 0, 0.75, 1.5, 3, 6, 9, 12 hours; details: 5 µM
[30] = The drug is tested on Coprococcus comes strain: ATCC27758 for biotransformation under anaerobic condition. The drug concentrations were measured over 6 timepoints collected between 0 and 12 hours of incubation by liquid-chromatography-coupled mass spectrometry (LC–MS); set-up: dose 5 uM, timepoint 0, 1.5, 3, 6, 9, 12 hours; details: 5 µM

| SMILES | Bacterial Biotransformation [1] | Bacterial Biotransformation [2] | Bacterial Biotransformation [3] | Bacterial Biotransformation [4] | Bacterial Biotransformation [5] | Bacterial Biotransformation [6] | Bacterial Biotransformation [7] | Bacterial Biotransformation [8] | Bacterial Biotransformation [9] | Bacterial Biotransformation [10] | Bacterial Biotransformation [11] | Bacterial Biotransformation [12] | Bacterial Biotransformation [13] | Bacterial Biotransformation [14] | Bacterial Biotransformation [15] | Bacterial Biotransformation [16] | Bacterial Biotransformation [17] | Bacterial Biotransformation [18] | Bacterial Biotransformation [19] | Bacterial Biotransformation [20] | further results |
| --- | --- | --- | --- | --- | --- | --- | --- | --- | --- | --- | --- | --- | --- | --- | --- | --- | --- | --- | --- | --- | --- |
| CCOC(=O)C1=C(COCCN)NC(C)=C(C(=O)OC)C1c1ccccc1Cl (stereo not given) [AMLODIPINE] | Compound NOT metabolized | Compound NOT metabolized | Compound NOT metabolized | Compound NOT metabolized | Compound NOT metabolized | Compound NOT metabolized | Compound NOT metabolized | Compound NOT metabolized | Compound NOT metabolized | Compound NOT metabolized | Compound NOT metabolized | Compound NOT metabolized | Compound NOT metabolized | Compound NOT metabolized | Compound NOT metabolized | Compound NOT metabolized | Compound metabolized | Compound NOT metabolized | Compound NOT metabolized | Compound NOT metabolized | Bacterial Biotransformation [21]: Compound NOT metabolized; Bacterial Biotransformation [22]: Compound metabolized; Bacterial Biotransformation [23]: Compound NOT metabolized; Bacterial Biotransformation [24]: Compound NOT metabolized; Bacterial Biotransformation [25]: Compound NOT metabolized; Bacterial Biotransformation [26]: Compound NOT metabolized; Bacterial Biotransformation [27]: Compound NOT metabolized; Bacterial Biotransformation [28]: Compound NOT metabolized; Bacterial Biotransformation [29]: Compound metabolized; Bacterial Biotransformation [30]: Compound NOT metabolized |
| CC(C)NCC(O)COc1ccc(CC(N)=O)cc1 (stereo not given) [ATENOLOL] | Compound NOT metabolized | Compound NOT metabolized | Compound NOT metabolized | Compound NOT metabolized | Compound NOT metabolized | Compound NOT metabolized | Compound NOT metabolized | Compound NOT metabolized | Compound NOT metabolized | Compound NOT metabolized | Compound NOT metabolized | Compound NOT metabolized | Compound NOT metabolized | Compound NOT metabolized | Compound NOT metabolized | Compound NOT metabolized | Compound NOT metabolized | Compound NOT metabolized | Compound NOT metabolized | Compound NOT metabolized | Bacterial Biotransformation [21]: Compound NOT metabolized; Bacterial Biotransformation [22]: Compound NOT metabolized; Bacterial Biotransformation [23]: Compound NOT metabolized; Bacterial Biotransformation [24]: Compound NOT metabolized; Bacterial Biotransformation [25]: Compound NOT metabolized; Bacterial Biotransformation [26]: Compound NOT metabolized; Bacterial Biotransformation [27]: Compound NOT metabolized; Bacterial Biotransformation [28]: Compound NOT metabolized; Bacterial Biotransformation [29]: Compound NOT metabolized; Bacterial Biotransformation [30]: Compound NOT metabolized |
| Cn1cnc([N+](=O)[O-])c1Sc1ncnc2nc[nH]c12 [AZATHIOPRINE] | Compound NOT metabolized | Compound metabolized | Compound NOT metabolized | Compound metabolized | Compound NOT metabolized | Compound NOT metabolized | Compound NOT metabolized | Compound metabolized | Compound metabolized | Compound NOT metabolized | Compound metabolized | Compound metabolized | Compound metabolized | Compound metabolized | Compound metabolized | Compound metabolized | Compound NOT metabolized | Compound metabolized | Compound NOT metabolized | Compound metabolized | Bacterial Biotransformation [21]: Compound metabolized; Bacterial Biotransformation [22]: Compound metabolized; Bacterial Biotransformation [23]: Compound metabolized; Bacterial Biotransformation [24]: Compound metabolized; Bacterial Biotransformation [25]: Compound metabolized; Bacterial Biotransformation [26]: Compound NOT metabolized; Bacterial Biotransformation [27]: Compound NOT metabolized; Bacterial Biotransformation [28]: Compound metabolized; Bacterial Biotransformation [29]: Compound metabolized; Bacterial Biotransformation [30]: Compound metabolized |
